In paper PMC10857906, “PROTAC-mediated NR4A1 degradation as a novel strategy for cancer immunotherapy” (The Journal of Experimental Medicine, 2024):

Legend:
[1] = target: T1, NR4A1 (Homo sapiens, UniProt P22736); test: NR4A1 degradation in CHL-1 human melanoma cells (immunoblotting); type: cell-based; settings: CHL-1 cells
T1 construct: NR-V04 effectively promoted the degradation of NR4A1 in two human melanoma cell lines within 16 h; endogenous in cells; host or cells: CHL-1, A375, WM164, M229 human melanoma cells
T1 sequence (P22736 whole entry): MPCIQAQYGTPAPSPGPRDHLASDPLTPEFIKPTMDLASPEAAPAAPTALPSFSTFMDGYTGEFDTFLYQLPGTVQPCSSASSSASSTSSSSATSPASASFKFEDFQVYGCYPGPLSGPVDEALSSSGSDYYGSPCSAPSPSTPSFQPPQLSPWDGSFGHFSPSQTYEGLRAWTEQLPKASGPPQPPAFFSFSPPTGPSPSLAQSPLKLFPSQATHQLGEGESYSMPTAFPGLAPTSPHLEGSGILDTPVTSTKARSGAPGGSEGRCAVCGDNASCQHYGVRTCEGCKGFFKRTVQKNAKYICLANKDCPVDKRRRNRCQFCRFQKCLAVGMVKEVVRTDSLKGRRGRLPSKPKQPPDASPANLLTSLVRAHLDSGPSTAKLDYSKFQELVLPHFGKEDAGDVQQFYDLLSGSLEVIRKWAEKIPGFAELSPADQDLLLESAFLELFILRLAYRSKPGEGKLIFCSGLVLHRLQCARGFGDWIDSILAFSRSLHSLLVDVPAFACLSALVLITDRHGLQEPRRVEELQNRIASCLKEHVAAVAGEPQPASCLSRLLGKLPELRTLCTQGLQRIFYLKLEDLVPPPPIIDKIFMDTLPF
Procedure: (§1) Human melanoma cell lines: A375 and CHL-1 (gifts from Dr. D. Zhou, the University of Texas Health Science Center, San Antonio, TX, USA) were cultured in Dulbecco’s Modified Eagles’ Medium (DMEM, D5796; Sigma-Aldrich), WM164 and M229 (gifts from Dr. K.S.M. Smalley’s lab) were cultured in RPMI-1640 (R8758; Sigma-Aldrich). Mouse melanoma cell lines: B16F10 (CRL-6475, ATCC) was cultured in DMEM, SW1 and SM1 (gift from Dr. K.S.M. Smalley, Moffitt Cancer Center, Tampa, FL, USA) were cultured in RPMI. Human epithelial kidney cell lines: HEK293T (293T, CRL-3216; ATCC) and Vhl-KO-293T (gift from Dr. D. Zhou, the University of Texas Health Science Center, San Antonio, TX, USA) were cultured in DMEM. Mouse colon cancer cell lines: MC38 (ENH204-FP; Kerafast Inc.) was cultured in DMEM supplemented with 1 mM glutamine, […] non-essential amino acids (11140050; Thermo Fisher Scientific), 1 mM sodium pyruvate (11360070; Thermo Fisher Scientific), and 10 mM HEPES (15630080; Thermo Fisher Scientific). All cell culturing media were supplemented with 10% fetal bovine serum (FBS, F2442; Sigma-Aldrich), 100 U/ml penicillin, and 100 µg/ml streptomycin (P4333; Sigma-Aldrich).
(§2) Samples were lysed using radioimmunoprecipitation assay buffer (RIPA) lysis buffer (150 mM NaCl, 5 mM EDTA, 50 mM Tris pH 8.0, 0.5% sodium deoxycholate, 1% NP-40, 0.1% SDS) supplemented with 1 mM dithiothreitol and protease inhibitors. The lysates were separated by SDS-PAGE and analyzed using standard western blotting procedures ([Khan et al., 2019]). Antibodies: human NR4A1 (ab153914, 1:1,000; Abcam), mouse NR4A1 (14-5965-82, 1:1,000; Invitrogen), NR4A2 (AV38753, 1:1,000; Sigma-Aldrich), NR4A3 (TA804893, 1: 1,000; Thermo Fisher Scientific), VHL (68547, 1:1,000; Cell Signaling), β-actin (13E5, 1:5,000; Cell Signaling), β-tubulin (9F3, 1: 5,000; Cell Signaling), and GAPDH (D16H11, 1: 5,000; Cell Signaling) were employed for protein detection.

[2] = target: T1, NR4A1; test: NR4A1 degradation in WM164 and M229 human melanoma cells (immunoblotting); type: cell-based; settings: 16 h
Procedure: as §1, with “All cell culturing media were supplemented with 10% fetal bovine serum (FBS, F2442; Sigma-Aldrich), 100 U/ml penicillin, and 100 µg/ml streptomycin (P4333; Sigma-Aldrich).” left out
(§3) Samples were lysed using radioimmunoprecipitation assay buffer (RIPA) lysis buffer (150 mM NaCl, 5 mM EDTA, 50 mM Tris pH 8.0, 0.5% sodium deoxycholate, 1% NP-40, 0.1% SDS) supplemented with 1 mM dithiothreitol and protease inhibitors. The lysates were separated by SDS-PAGE and analyzed using standard western blotting procedures ([Khan et al., 2019]). […]

[3] = target: T2, NR4A1 (Mus musculus, UniProt P12813); test: NR4A1 degradation in SM1 and SW1 mouse melanoma cell lines (immunoblotting); type: cell-based; settings: 16 h
T2 construct: from tissue; host or cells: MC38 tumours in mice (tumour lysates)
T2 sequence (P12813 whole entry): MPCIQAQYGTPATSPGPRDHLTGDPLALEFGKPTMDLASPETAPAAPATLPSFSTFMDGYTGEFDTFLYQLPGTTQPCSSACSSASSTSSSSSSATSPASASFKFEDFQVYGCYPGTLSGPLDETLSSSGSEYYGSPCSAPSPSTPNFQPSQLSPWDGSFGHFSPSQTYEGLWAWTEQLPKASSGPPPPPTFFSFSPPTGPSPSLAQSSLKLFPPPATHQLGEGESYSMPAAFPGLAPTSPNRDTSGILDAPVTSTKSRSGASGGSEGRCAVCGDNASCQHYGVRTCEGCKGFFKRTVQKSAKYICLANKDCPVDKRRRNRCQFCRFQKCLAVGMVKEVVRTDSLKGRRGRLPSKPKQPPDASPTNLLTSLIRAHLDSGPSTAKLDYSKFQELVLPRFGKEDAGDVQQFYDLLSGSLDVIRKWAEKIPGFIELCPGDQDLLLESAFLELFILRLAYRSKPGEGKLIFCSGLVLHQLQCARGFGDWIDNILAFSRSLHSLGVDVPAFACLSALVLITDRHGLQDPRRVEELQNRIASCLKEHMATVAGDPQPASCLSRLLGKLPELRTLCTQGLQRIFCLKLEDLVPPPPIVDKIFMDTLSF
Procedure: as §1, with “All cell culturing media were supplemented with 10% fetal bovine serum (FBS, F2442; Sigma-Aldrich), 100 U/ml penicillin, and 100 µg/ml streptomycin (P4333; Sigma-Aldrich).” left out
as §3

[4] = target: T3, NR4A2 (Homo sapiens, UniProt P43354); test: NR4A2 protein level after treatment (immunoblotting); type: cell-based
T3 construct: endogenous in cells
T3 sequence (P43354 whole entry): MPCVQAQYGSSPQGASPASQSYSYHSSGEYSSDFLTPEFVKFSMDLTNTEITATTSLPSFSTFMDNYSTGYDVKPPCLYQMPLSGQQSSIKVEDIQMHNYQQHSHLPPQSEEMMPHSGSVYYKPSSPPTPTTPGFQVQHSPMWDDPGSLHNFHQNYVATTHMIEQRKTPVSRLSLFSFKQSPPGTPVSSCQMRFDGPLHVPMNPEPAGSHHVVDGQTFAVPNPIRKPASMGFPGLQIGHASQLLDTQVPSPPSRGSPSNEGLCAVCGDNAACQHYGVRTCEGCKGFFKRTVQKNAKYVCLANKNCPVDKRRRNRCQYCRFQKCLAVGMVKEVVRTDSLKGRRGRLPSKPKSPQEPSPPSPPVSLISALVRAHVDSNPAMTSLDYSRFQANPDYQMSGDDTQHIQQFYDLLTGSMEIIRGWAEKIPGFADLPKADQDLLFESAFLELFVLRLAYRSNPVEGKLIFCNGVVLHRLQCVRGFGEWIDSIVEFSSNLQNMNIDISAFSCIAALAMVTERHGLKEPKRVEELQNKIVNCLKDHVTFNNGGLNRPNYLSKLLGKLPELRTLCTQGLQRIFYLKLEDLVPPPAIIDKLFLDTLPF
Procedure: as §2

[5] = target: NR4A1 and VHL (Homo sapiens, UniProt P22736+P40337); test: Co-IP of Flag-NR4A1 and VHL in HEK293T cells; type: cell-based; settings: 500 nM, 16 h, 0.5 μM MG132
NR4A1 and VHL, sequence (P22736 whole entry): as the sequence (P22736 whole entry) above
NR4A1 and VHL, sequence (P40337 whole entry): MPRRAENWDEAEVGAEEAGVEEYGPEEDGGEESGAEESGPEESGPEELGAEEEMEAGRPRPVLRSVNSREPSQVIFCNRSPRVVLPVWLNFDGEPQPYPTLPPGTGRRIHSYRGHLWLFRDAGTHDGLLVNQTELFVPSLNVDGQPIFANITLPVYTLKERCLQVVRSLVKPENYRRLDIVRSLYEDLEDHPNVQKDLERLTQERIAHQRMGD
NR4A1 and VHL, sequence (Q15369 whole entry partner): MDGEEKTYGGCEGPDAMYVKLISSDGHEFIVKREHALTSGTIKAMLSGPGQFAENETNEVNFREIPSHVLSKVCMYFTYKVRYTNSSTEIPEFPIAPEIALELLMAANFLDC
NR4A1 and VHL, sequence (Q15370 whole entry partner): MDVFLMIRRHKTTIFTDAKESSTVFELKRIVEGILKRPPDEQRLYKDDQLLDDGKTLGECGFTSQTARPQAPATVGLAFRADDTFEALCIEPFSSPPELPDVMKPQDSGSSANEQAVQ
Procedure: HEK293T cells were transfected with 3 µg Flag-NR4A1 (HG17699-CF; SinoBiological) for 36 h in Opti-MEM (31985062; Thermo Fisher Scientific) medium with 10 µl GeneTran III reagent (GT2211; Biomiga).
HEK293T cells were transfected with Flag-NR4A1 for 36 h, following with treatment of either DMSO or 500 nM […] for 16 h, together with 500 nM MG132 included to prevent protein degradation. Proteins were extracted using RIPA lysis buffer without SDS (150 mM NaCl, 5 mM EDTA, 50 mM Tris, pH 8.0, 0.5% sodium deoxycholate, and 1% NP-40) supplemented with 1% protease inhibitor cocktail (C0001; TargetMol). IP was performed using Anti-FLAG M2 Magnetic Beads (M8823; Sigma-Aldrich) as per the manufacturer’s protocol. The immunoprecipitated samples were eluted with 2× SDS sample buffer and boiled for 5 min at 95°C. The samples were then subjected to denaturation, SDS-PAGE, and immunoblotting analysis.

[6] = target: T2, NR4A1; test: PD: NR4A1 degradation in MC38 tumors in mice (immunoblotting); type: in vivo
Procedure: as §2
7–9-wk-old C57BL/6J, B6.129S2-Ighm^tm1Cgn/J (002288), B6.129S2-Nr4a1^tm1Jmi/J (NR4A1^−/−, 006187), and NOD-SCID interleukin-2 receptor gamma null (NSG) mice were purchased from Jackson Laboratories. […]
For syngeneic tumor models, 5 × 10^5 cells MC38, Yumm1.7, and Yummer1.7, 1 × 10^5 cells of B16F10 were resuspended in PBS and implanted into 7–9-wk-old mice subcutaneously. […] Blood samples were taken from the submandibular (facial) vein before each treatment and 42 days later for hematological analysis, and body weight was measured twice per week up to day 42. […]

[7] = system: MC38 tumors; test: MC38 colon cancer syngeneic tumor model; type: in vivo, mouse
From the text: (§4) 7–9-wk-old C57BL/6J, B6.129S2-Ighm^tm1Cgn/J (002288), B6.129S2-Nr4a1^tm1Jmi/J (NR4A1^−/−, 006187), and NOD-SCID interleukin-2 receptor gamma null (NSG) mice were purchased from Jackson Laboratories. For all studies involving NR-V04 and celastrol, the compounds were formulated in 50% phosal PG, 45% miglyol 810N, and 5% polysorbate 80 and administered via i.p. injection.
(§5) For syngeneic tumor models, 5 × 10^5 cells MC38, Yumm1.7, and Yummer1.7, 1 × 10^5 cells of B16F10 were resuspended in PBS and implanted into 7–9-wk-old mice subcutaneously. For the tumor inhibition experiment, mice were treated with 1.8 mg/kg NR-V04 or 0.75 mg/kg celastrol by i.p. injection twice weekly. For the immune profile experiment, once tumors reached 0.5 cm in diameter, mice were treated with 1.8 mg/kg NR-V04 by i.p. injection twice weekly. For the toxicity experiment, male and female non-tumor-bearing mice were treated with 2 mg/kg NR-V04 for two doses in the first week and 5 mg/kg for another two doses in the second week. Blood samples were taken from the submandibular (facial) vein before each treatment and 42 days later for hematological analysis, and body weight was measured twice per week up to day 42. Mice were euthanized in accordance with the IACUC protocol once the largest tumors reached 2 cm in diameter, and tissues were collected for further analysis.

[8] = system: Yumm1.7 tumors; test: Yumm1.7 melanoma syngeneic tumor model; type: in vivo, mouse; settings: Yumm1.7 (low immunogenicity), 1.8 mg/kg
From the text: as §4, §5

SMILES: CC1=C(O)C(=O)C=C2C1=CC=C1[C@@]2(C)CC[C@@]2(C)[C@@H]3C[C@](C)(C(=O)NCCOCCOCCOCCOCC(=O)N[C@H](C(=O)N4C[C@H](O)C[C@H]4C(=O)N[C@@H](C)c4ccc(-c5scnc5C)cc4)C(C)(C)C)CC[C@]3(C)CC[C@]12C [NR-V04]
- NR4A1 protein level, initial screening ([1]; 250 nM, 16 h, immunoblotting and densitometry): highest potency in reducing the protein level of NR4A1
- NR4A1 protein level with proteasome inhibitor MG132 pretreatment ([1]; 0.5 μM MG132 10 min, then 500 nM NR-V04 16 h): effectively rescued the NR4A1 protein level
- NR4A1 protein level at early time point ([1]; 500 nM, 4 h): initial induction of NR4A1 protein
- NR4A1 degradation with VHL ligand VHL-032 pretreatment ([1]; 10 µM VHL 032 10 min, then 500 nM NR-V04 16 h): prevented
- DC50 ([1]; 16 h treatment, read-out: 50% degradation concentration (DC50) of NR4A1): 229 nM
- NR4A1 protein level ([2]; M229 human melanoma cells): reduced NR4A1 protein level
- NR4A1 protein level ([2]; WM164 human melanoma cells): reduced NR4A1 protein level
- NR4A1 protein level ([3]; SM1 mouse melanoma cells): reduced NR4A1 protein level
- NR4A1 protein level ([3]; SW1 mouse melanoma cells): reduced NR4A1 protein level
- NR4A2 protein level (selectivity in the NR4A family) [4]: sparing NR4A2 and NR4A3
- Co-IP complex formation [5]: complex formation between NR4A1 and VHL
- NR4A1 protein in MC38 tumors at termination ([6]; 8 doses for 4 wk, 1.8 mg/kg NR-V04 or 0.75 mg/kg celastrol, every 4 days): almost completely degraded
- NR4A1 degradation in MC38 tumors ([6]; two doses of 1.8 mg/kg i.p., tumors collected 1-4 days after the last treatment): significant degradation of NR4A1 starting from day 1 and persisting for 3 days
- tumor growth ([7]; MC38 in NSG mice, 1.8 mg/kg i.p.): failed to inhibit tumor growth
- tumor growth ([7]; MC38 in WT mice, 1.8 mg/kg NR-V04 or 0.75 mg/kg celastrol i.p. twice a week from day 7): effectively inhibited tumor growth
- CD8^+ Texh cells in vivo ([7]; MC38 tumors): did not observe a significant decrease in CD8^+ Texh cells
- tumor growth [8]: no tumor inhibitory effect
